Measurements: patent publication US4783462A, “3(2H)pyridazinone, and anti-allergic agent containing it” (Nissan Chemical Industries Ltd., priority 1985, dated 1988)

How the values were obtained:
ddY strain male mice = assay: Acute toxicity test, Test method-(2), intraperitoneal; type: in vivo; conditions: 7 days
Protocol: The lethal ratio was determined in ddY strain male mice (4 weeks old) at 7 days after the intraperitoneal injection of test compounds.

LTC4 = assay: Antagonism in isolated guinea-pig trachea, Test method (i) (Table 3, given as LTC4 antagonism); type: cell-based; conditions: Cavia porcellus, 5 min, test compound 10^-5 g/ml, given as LTC4 antagonisms
Protocol: (i) LTC4 and LTD4 antagonisms in guinea-pig trachea
Antagonisms for LTC4 and LTD4 were determined in isolated guinea-pig trachea prepared as spiral strip. Tracheal preparations were suspended under 1 g tension in 10 ml organ baths and they were incubated for 1 hr prior to use. Contractile responses to LTC4 (2×10^-8 g/ml) and LTD4 (2×10^-8 g/ml) were obtained after the maximal response to histamine (10^-4 M). Test compounds dissolved in 100% dimethyl sulfoxide were added to the organ baths (final concentration of 10^-5 g/ml or 10^-6 g/ml) 5 min prior to LTC4 and LTD4 addition, and then contractile responses to LTC4 and LTD4 were compared with those of control which was obtained from a paired trachea in the absence of test compounds. LTC4 - and LTD4 -induced contractions were expressed as a percentage of the maximal response to histamine. The antagonism was determined as follows:
(§1) Antagonism (%)=(1.0-% contraction in test/% contraction in […]

LTD4 = LTD4 antagonism in isolated guinea-pig trachea with indomethacin, Test method (ii) (Table 4); type: cell-based; conditions: Cavia porcellus, 0.5 h, LTD4 2×10^-8 g/ml, test compound 10^-6 g/ml, 30 min prior, 5 μmol indomethacin
Protocol: (ii) LTD4 antagonism in guinea-pig trachea
Antagonism for LTD4 was determined in isolated guinea-pig trachea prepared as spiral strip. Tracheal preparations were suspended under 1 g tension in 10 ml organ baths containing 5 μmol of indomethacin and they were incuated for 1 hr prior to use. Contractile responses to LTD4 (2×10^-8 g/ml) were obtained after the maximal response to histamine (10^-4 M). Test compounds dissolved in 100% dimethyl sulfoxide were added to the organ baths (final concentration of 10^-6 g/ml) 30 min prior to LTD4 addition, and then contractile responses to LTD4 were compared with those of control which was obtained from a paired trachea in the absence of test compounds. LTD4 -induced contractions were expressed as a percentage of the maximal response to histamine. The antagonism was determined as follows:
as §1

[1] = test system: anaphylactic bronchoconstriction in passively sensitized guinea-pig; assay: Effect on anaphylactic bronchoconstriction in passively sensitized guinea-pig; type: in vivo; conditions: 2 mg/kg i.v.
Protocol: (iii) Effect on anaphylactic bronchoconstriction in passively sensitized guinea-pig
Male guinea-pigs (350-450 g) were passively sensitized with intravenous (i.v.) injection of 0.125 ml rabbit anti-EA (egg albumin) serum (Cappel Laboratories) 1 day preceding the experiment. […] Sensitized guinea-pigs were anaesthetized with intraperitoneal injection of urethane (1.5 g/kg). The right jugular vein was cannulated for the administration of the all agents and trachea was cannulated to record total pulmonary resistance. Guinea-pigs were artificially ventilated by a small animal respirator (Shinano, Model SN-480-7) set at a stroke volume of 5 ml and a rate of 50 breaths per min. […] The increase in air overflow volume was expressed as a percentage of the maximum bronchoconstriction obtained by clamping off the trachea. Following surgical preparation, the animals were pretreated with indomethacin (1.0 mg/kg, 10 min), pyrilamine (2 mg/kg, 6 min) and propranolol (0.1 mg/kg, 5 min) prior to the EA challenge (0.1 or 10 mg/kg). All test compounds, 2 mg/kg in 3% Tween 80 or 3% PEG-400, were administered 1 min before the EA challenge. Inhibition (%) of bronchoconstriction was determined as follows: Inhibition (%)=(1.0%-maximum bronchoconstriction in test/% maximum bronchoconstriction in control)×100. The maximum bronchoconstriction was obtained within 20 min after the EA challenge.
In the Table, the dose of EA was 10 mg/kg, and each compound was dissolved or suspended in 3% Tween 80.
The dose of EA was 0.1 mg/kg.

[2] = Table 5-(2), EA 0.1 mg/kg, Tween 80
[3] = Table 5-(1), EA 10 mg/kg, 3% Tween 80
[4] = Table 5-(2), EA 0.1 mg/kg, PEG-400

SMILES | inhibition at 10 µg/mL (LTC4) | inhibition at 1 µg/mL (LTD4) | Inhibition (%) [1, 2] | further results
CCCc1cc(C(=O)OC)ccc1OCCCNc1cnn(C(C)C)c(=O)c1Cl [Compound No. 44, 4-choloro-5-[3-(2-n-propyl-4-methoxycarbonylphenoxy)propylamino]-2-i-propyl-3(2H)pyridazinone] | 90% | 63% |  | Lethal ratio (Death number/Experimental number) (ddY strain male mice; 200 mg/kg intraperitoneal): 0/1; Lethal ratio (Death number/Experimental number) (ddY strain male mice; 400 mg/kg intraperitoneal): 0/1
CCCc1cc(C(=O)OCC)ccc1OCCCNc1cnn(C(C)C)c(=O)c1Cl [Compound No. 64, 4-chloro-5-[3-(2-n-propyl-4-ethoxycarbonylphenoxy)propylamino]-2-i-propyl-3(2H)pyridazinone] | 87% |  | 56% | 
CCCc1cc(C(=O)O)ccc1OCCCNc1cnn(C(C)C)c(=O)c1Cl [Compound No. 67] | 99% |  | 62% | 
CCc1cc(C#N)ccc1OCCCNc1cnn(C(C)C)c(=O)c1Cl [Compound No. 98] | 89% | 80% |  | 
CCCc1cc(C(=O)OC)ccc1OCC(=O)CNc1cnn(C(C)C)c(=O)c1Cl [Compound No. 161, 4-Chloro-5-[3-(2-n-propyl-4-methoxycarbonylphenoxy)-2-oxopropylamino]-2-i-propyl-3(2H)pyridazinone] | 71% |  | 20% | 
CCCc1cc(C(=O)OC)ccc1OCCCNc1cnn(C)c(=O)c1Cl [compound 43] | 63% |  |  | Inhibition (%) [1, 3]: 24%
CCOc1ccccc1OCCCNc1cnn(CC)c(=O)c1Cl [compound 51] | 82% |  |  | Inhibition (%) [1, 3]: 15%
COc1ccc(CCNc2cnn(C(C)C)c(=O)c2Cl)cc1 [compound 55] | 72% |  |  | Inhibition (%) [1, 3]: 26%
CCCc1cc(C#N)ccc1OCCCNc1cnn(C(C)C)c(=O)c1Cl [compound 60] | 98% |  |  | Inhibition (%) [1, 3]: 15%
CCCc1cc(C#N)ccc1OCCCOc1cnn(CC)c(=O)c1Cl [compound 65] | 98% |  | 27% | 
CCOc1ccccc1OCCCNc1cnn(C(C)C)c(=O)c1Cl [compound 71] | 88% |  | 26% | 
CCCc1cc(C(=O)O)ccc1OCCCN(C)c1cnn(C(C)C)c(=O)c1Cl [compound 74] | 73% |  | 50% | 
CCCc1cc(C(=O)OC)ccc1OCCCOc1cnn(C(C)C)c(=O)c1Cl [compound 85] | 78% |  | 23% | 
CCc1cc(C(N)=O)ccc1OCCCNc1cnn(C(C)C)c(=O)c1Cl [compound 102] | 93% |  |  | Inhibition (%) [1, 4]: 73%
CCn1ncc(NCCCOc2ccc(C(=O)OC)cc2C(C)C)c(Cl)c1=O [compound 103] | 93% |  |  | Inhibition (%) [1, 4]: 69%
CCCc1cc(OC)ccc1OCCCNc1cnn(C(C)C)c(=O)c1Cl [compound 105] | 89% | 52% |  | 
CCCc1cc(O)ccc1OCCCNc1cnn(C(C)C)c(=O)c1Cl [compound 109] | 99% | 69% |  | 
CCCCc1cc(C(=O)OC)ccc1OCCCNc1cnn(CC)c(=O)c1Cl [compound 111] | 87% | 79% |  | 
CCCCc1cc(C(=O)O)ccc1OCCCNc1cnn(CC)c(=O)c1Cl [compound 113] | 100% | 54% |  | 
CCCCc1cc(C(N)=O)ccc1OCCCNc1cnn(CC)c(=O)c1Cl [compound 115] | 94% | 61% |  | 
CCCc1cc(C(=O)OC)ccc1OCC(CNc1cnn(C(C)C)c(=O)c1Cl)OC (stereo not drawn) [compound 162] | 81% |  | 49% | 
CCCc1cc(C(=O)O)ccc1OCC(CNc1cnn(C(C)C)c(=O)c1Cl)OC (stereo not drawn) [compound 163] | 74% |  | 32% | 
CCCCCc1cc(C(=O)O)ccc1OCCCNc1cnn(CC)c(=O)c1Br [compound 205] |  | 96% |  | 
CCC(C)c1cc(C(=O)O)ccc1OCCCNc1cnn(CC)c(=O)c1Br (stereo not drawn) [compound 218] |  | 84% |  | 
